Test results published in PubChem BioAssay (NCI).
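Cells were grown in 96-well plates and exposed to each compound for 48 hours at five concentrations; endpoints were interpolated linearly between bracketing concentrations, or set to the highest concentration if not reached. The concentration for 50% growth inhibition is given as GI50. TGI marks complete inhibition of growth.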

How the values were obtained:
Test in all cases: NCI-60 cell line screen, 48 h
[1] = tested on: 786-0 renal
[2] = tested on: A498 renal
[3] = tested on: A549 NSCLC
[4] = tested on: ACHN renal
[5] = tested on: BT-549 breast
[6] = tested on: CAKI-1 renal
[7] = tested on: CCRF-CEM leukemia
[8] = tested on: COLO 205 colon
[9] = tested on: DU-145 prostate
[10] = tested on: EKVX NSCLC
[11] = tested on: HCC-2998 colon
[12] = tested on: HCT-116 colon
[13] = tested on: HCT-15 colon
[14] = tested on: HL-60(TB) leukemia
[15] = tested on: HOP-62 NSCLC
[16] = tested on: HOP-92 NSCLC
[17] = tested on: HS 578T breast
[18] = tested on: HT29 colon
[19] = tested on: IGROV1 ovarian
[20] = tested on: K-562 leukemia
[21] = tested on: KM12 colon
[22] = tested on: LOX IMVI melanoma
[23] = tested on: M14 melanoma
[24] = tested on: MALME-3M melanoma
[25] = tested on: MCF7 breast
[26] = tested on: MDA-MB-231 breast
[27] = tested on: MDA-MB-435
[28] = tested on: MOLT-4 leukemia
[29] = tested on: NCI-H226 lung
[30] = tested on: NCI-H23 lung
[31] = tested on: NCI-H460 lung
[32] = tested on: NCI-H522 lung
[33] = tested on: NCI/ADR-RES ovarian
[34] = tested on: OVCAR-3 ovarian
[35] = tested on: OVCAR-4 ovarian
[36] = tested on: OVCAR-5 ovarian
[37] = tested on: OVCAR-8 ovarian
[38] = tested on: PC-3 prostate
[39] = tested on: RPMI-8226 leukemia
[40] = tested on: RXF 393 renal
[41] = tested on: SF-268 CNS
[42] = tested on: SF-295 CNS
[43] = tested on: SF-539 CNS
[44] = tested on: SK-MEL-2 melanoma
[45] = tested on: SK-MEL-28 melanoma
[46] = tested on: SK-MEL-5 melanoma
[47] = tested on: SK-OV-3 ovarian
[48] = tested on: SN12C renal
[49] = tested on: SNB-19 CNS
[50] = tested on: SNB-75 CNS
[51] = tested on: SR leukemia
[52] = tested on: SW-620 colon
[53] = tested on: T-47D breast
[54] = tested on: TK-10 renal
[55] = tested on: U251 CNS
[56] = tested on: UACC-257 melanoma
[57] = tested on: UACC-62 melanoma
[58] = tested on: UO-31 renal

## C[C@@H](Nc1c(C#N)cnc2ccc(-c3cnc(Cl)c(NS(C)(=O)=O)c3)cc12)c1ccccc1
[1]
  GI50: 365 nM
  TGI: > 100000 nM
[2]
  GI50: 207 nM
  TGI: 778 nM
[3]
  GI50: 492 nM
  TGI: 6470 nM
[4]
  GI50: 540 nM
  TGI: 44100 nM
[5]
  GI50: 146 nM
  TGI: 2560 nM
[6]
  GI50: 241 nM
  TGI: 3980 nM
[7]
  GI50: 178 nM
  TGI: > 21400 nM
[8]
  GI50: 340 nM
  TGI: 2240 nM
[9]
  GI50: 380 nM
  TGI: 11700 nM
[10]
  GI50: 431 nM
  TGI: 5350 nM
[11]
  GI50: 515 nM
  TGI: 8730 nM
[12]
  GI50: 124 nM
  TGI: 4830 nM
[13]
  GI50: 303 nM
  TGI: 11500 nM
[14]
  GI50: 222 nM
  TGI: 6480 nM
[15]
  GI50: 326 nM
  TGI: 5120 nM
[16]
  GI50: 51.5 nM
  TGI: 636 nM
[17]
  GI50: 181 nM
  TGI: 1290 nM
[18]
  GI50: 351 nM
  TGI: 12900 nM
[19]
  GI50: 181 nM
  TGI: 1010 nM
[20]
  GI50: 264 nM
  TGI: > 100000 nM
[21]
  GI50: 493 nM
  TGI: 11300 nM
[22]
  GI50: 275 nM
  TGI: 1680 nM
[23]
  GI50: 442 nM
  TGI: 12500 nM
[24]
  GI50: 166 nM
  TGI: 1820 nM
[25]
  GI50: 41.7 nM
  TGI: 4080 nM
[26]
  GI50: 594 nM
  TGI: 16600 nM
[27]
  GI50: 495 nM
  TGI: 11400 nM
[28]
  GI50: 144 nM
  TGI: 1810 nM
[29]
  GI50: 676 nM
  TGI: 18200 nM
[30]
  GI50: 233 nM
  TGI: 5840 nM
[31]
  GI50: 357 nM
  TGI: 12000 nM
[32]
  GI50: 440 nM
  TGI: 11500 nM
[33]
  GI50: 1610 nM
  TGI: 32100 nM
[34]
  GI50: 260 nM
  TGI: 3820 nM
[35]
  GI50: 450 nM
  TGI: 15400 nM
[36]
  GI50: 544 nM
  TGI: 19200 nM
[37]
  GI50: 559 nM
  TGI: > 36600 nM
[38]
  GI50: 259 nM
  TGI: 7970 nM
[39]
  GI50: 121 nM
  TGI: 582 nM
[40]
  GI50: 158 nM
  TGI: 877 nM
[41]
  GI50: 275 nM
  TGI: 7330 nM
[42]
  GI50: 252 nM
  TGI: 2290 nM
[43]
  GI50: 372 nM
  TGI: 4080 nM
[44]
  GI50: 249 nM
  TGI: 1590 nM
[45]
  GI50: 346 nM
  TGI: 11200 nM
[46]
  GI50: 138 nM
  TGI: 283 nM
[47]
  GI50: 431 nM
  TGI: 3180 nM
[48]
  GI50: 322 nM
  TGI: > 100000 nM
[49]
  GI50: 500 nM
  TGI: 12100 nM
[50]
  GI50: < 35.3 nM
  TGI: 701 nM
[51]
  GI50: 206 nM
  TGI: 6190 nM
[52]
  GI50: 343 nM
  TGI: 12100 nM
[53]
  GI50: 112 nM
  TGI: 3880 nM
[54]
  GI50: 184 nM
  TGI: 1880 nM
[55]
  GI50: 335 nM
  TGI: 13400 nM
[56]
  GI50: 495 nM
  TGI: 7050 nM
[57]
  GI50: 206 nM
  TGI: 2030 nM
[58]
  GI50: 256 nM
  TGI: 9300 nM
